Several values for one entry are separate records, joined by “and”; a condition that tells them apart may be missing. Identical values can stand only once. Inconclusive results and toxic doses are left out. Cut-off read from the data, not from the text of the source: active = T/C of 150% or more; inactive = T/C below 125%.
Test system: L1210 leukemia ip in BDF1 mice, survival T/C
Experiment: NCI In Vivo Anticancer Drug Screen. Data for tumor model L1210 Leukemia (intraperitoneal) in B6D2F1 (BDF1) mice
Conditions: higher = longer survival
Method in brief: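 Read-out is survival time, reported as the treated-group measurement over the vehicle-control measurement.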

Measured: T/C

CC[C@]1(O)C[C@H]2CN(CCc3c([nH]c4ccccc34)[C@@](C(=O)OC)(c3cc4c(cc3OC)N(C=O)[C@H]3[C@@](O)(C(=O)OC)[C@H](OC(C)=O)[C@]5(CC)C=CCN6CC[C@]43[C@@H]65)C2)C1
inactive: endpoint: mean survival time, dose: 0.03 mg/kg/injection, schedule: Q01DX015 (ip), vehicle: saline 108 % of control | endpoint: mean survival time, dose: 0.03 mg/kg/injection, schedule: Q03HX032 (ip), vehicle: saline 107 % of control | endpoint: mean survival time, dose: 0.03 mg/kg/injection, schedule: Q## X032 (ip), vehicle: saline 107 % of control | endpoint: mean survival time, dose: 0.04 mg/kg/injection, schedule: Q03HX032 (ip), vehicle: saline 109 % of control | endpoint: mean survival time, dose: 0.04 mg/kg/injection, schedule: Q## X032 (ip), vehicle: saline 109 % of control | endpoint: mean survival time, dose: 0.05 mg/kg/injection, schedule: Q01DX005 (ip), vehicle: saline 101 % of control | endpoint: mean survival time, dose: 0.05 mg/kg/injection, schedule: Q01DX005 (iv), vehicle: saline 101 % of control | endpoint: mean survival time, dose: 0.05 mg/kg/injection, schedule: Q01DX015 (ip), vehicle: saline 108 % of control | endpoint: mean survival time, dose: 0.06 mg/kg/injection, schedule: Q01DX Z (ip), vehicle: water 105 % of control | endpoint: mean survival time, dose: 0.06 mg/kg/injection, schedule: Q## X032 (ip), vehicle: saline 113 % of control | endpoint: mean survival time, dose: 0.07 mg/kg/injection, schedule: Q03HX032 (ip), vehicle: saline 113 % of control | endpoint: mean survival time, dose: 0.08 mg/kg/injection, schedule: Q04DX002 (ip), vehicle: saline 102 % of control and 104 % of control | endpoint: mean survival time, dose: 0.1 mg/kg/injection, schedule: Q01DX005 (ip), vehicle: saline 116 % of control | endpoint: mean survival time, dose: 0.1 mg/kg/injection, schedule: Q01DX005 (iv), vehicle: saline 100 % of control | endpoint: mean survival time, dose: 0.12 mg/kg/injection, schedule: Q01DX Z (ip), vehicle: water 108 % of control | endpoint: mean survival time, dose: 0.15 mg/kg/injection, schedule: Q01DX015 (ip), vehicle: saline 114 % of control | endpoint: mean survival time, dose: 0.15 mg/kg/injection, schedule: Q04DX002 (ip), vehicle: saline 100 % of control and 105 % of control | endpoint: mean survival time, dose: 0.2 mg/kg/injection, schedule: Q01DX005 (ip), vehicle: saline 115 % of control | endpoint: mean survival time, dose: 0.2 mg/kg/injection, schedule: Q01DX005 (iv), vehicle: saline 106 % of control | endpoint: mean survival time, dose: 0.2 mg/kg/injection, schedule: Q04DX002 (ip), vehicle: saline 104 % of control | endpoint: mean survival time, dose: 0.23 mg/kg/injection, schedule: Q04DX003 (ip), vehicle: saline 110 % of control | endpoint: mean survival time, dose: 0.25 mg/kg/injection, schedule: Q01DX Z (ip), vehicle: water 115 % of control | endpoint: mean survival time, dose: 0.39 mg/kg/injection, schedule: Q04DX002 (ip), vehicle: saline 110 % of control | endpoint: mean survival time, dose: 0.4 mg/kg/injection, schedule: Q01DX005 (ip), vehicle: saline 105 % of control | endpoint: mean survival time, dose: 0.4 mg/kg/injection, schedule: Q01DX005 (iv), vehicle: saline 100 % of control | endpoint: mean survival time, dose: 0.5 mg/kg/injection, schedule: Q01DX009 (ip), vehicle: saline 105 % of control | endpoint: mean survival time, dose: 0.5 mg/kg/injection, schedule: Q01DX Z (ip), vehicle: saline 97 % of control | endpoint: mean survival time, dose: 0.5 mg/kg/injection, schedule: Q01DX Z (ip), vehicle: water 108 % of control | endpoint: mean survival time, dose: 0.5 mg/kg/injection, schedule: Q04DX004 (ip), vehicle: saline 110 % of control | endpoint: mean survival time, dose: 0.75 mg/kg/injection, schedule: Q01DX015 (ip), vehicle: saline 113 % of control | endpoint: mean survival time, dose: 0.8 mg/kg/injection, schedule: Q01DX001 (ip), vehicle: saline 115 % of control | endpoint: mean survival time, dose: 0.8 mg/kg/injection, schedule: Q01DX005 (iv), vehicle: saline 116 % of control | endpoint: mean survival time, dose: 0.8 mg/kg/injection, schedule: Q01DX015 (ip), vehicle: saline 108 % of control | endpoint: mean survival time, dose: 1.0 mg/kg/injection, schedule: Q01DX Z (ip), vehicle: water 95 % of control and 99 % of control | endpoint: mean survival time, dose: 1.0 mg/kg/injection, schedule: Q04DX004 (ip), vehicle: saline 115 % of control | endpoint: mean survival time, dose: 1.12 mg/kg/injection, schedule: Q01DX015 (ip), vehicle: saline 105 % of control | endpoint: mean survival time, dose: 1.5 mg/kg/injection, schedule: Q01DX001 (ip), vehicle: water 109 % of control and 112 % of control | endpoint: mean survival time, dose: 1.5 mg/kg/injection, schedule: Q04DX002 (ip), vehicle: saline 116 % of control | endpoint: mean survival time, dose: 6.0 mg/kg/injection, schedule: Q01DX001 (ip), vehicle: water 107 % of control | endpoint: mean survival time, dose: 3.2 micrograms/kg/injection, schedule: Q01DX015 (ip), vehicle: saline 94 % of control | endpoint: mean survival time, dose: 6.3 micrograms/kg/injection, schedule: Q01DX015 (ip), vehicle: saline 97 % of control | endpoint: mean survival time, dose: 11.0 micrograms/kg/injection, schedule: Q01DX009 (ip), vehicle: saline 102 % of control and 109 % of control | endpoint: mean survival time, dose: 12.5 micrograms/kg/injection, schedule: Q01DX015 (ip), vehicle: saline 98 % of control | endpoint: mean survival time, dose: 15.6 micrograms/kg/injection, schedule: Q03HX008 (ip), vehicle: clinical formulation 104 % of control | endpoint: mean survival time, dose: 15.6 micrograms/kg/injection, schedule: Q03HX016 (ip), vehicle: clinical formulation 100 % of control | endpoint: mean survival time, dose: 15.6 micrograms/kg/injection, schedule: Q03HX024 (ip), vehicle: clinical formulation 102 % of control | endpoint: mean survival time, dose: 23.0 micrograms/kg/injection, schedule: Q01DX009 (ip), vehicle: saline 98 % of control and 100 % of control | endpoint: mean survival time, dose: 25.0 micrograms/kg/injection, schedule: Q01DX015 (ip), vehicle: saline 112 % of control | endpoint: mean survival time, dose: 31.2 micrograms/kg/injection, schedule: Q01DX009 (ip), vehicle: clinical formulation 102 % of control | endpoint: mean survival time, dose: 31.2 micrograms/kg/injection, schedule: Q03HX008 (ip), vehicle: clinical formulation 106 % of control | endpoint: mean survival time, dose: 31.2 micrograms/kg/injection, schedule: Q03HX016 (ip), vehicle: clinical formulation 105 % of control | endpoint: mean survival time, dose: 47.0 micrograms/kg/injection, schedule: Q01DX009 (ip), vehicle: saline 109 % of control and 114 % of control | endpoint: mean survival time, dose: 50.0 micrograms/kg/injection, schedule: Q01DX015 (ip), vehicle: saline 113 % of control | endpoint: mean survival time, dose: 62.5 micrograms/kg/injection, schedule: Q03HX008 (ip), vehicle: clinical formulation 112 % of control | endpoint: mean survival time, dose: 62.5 micrograms/kg/injection, schedule: Q03HX016 (ip), vehicle: clinical formulation 105 % of control | endpoint: mean survival time, dose: 62.5 micrograms/kg/injection, schedule: Q04DX003 (ip), vehicle: clinical formulation 113 % of control | endpoint: mean survival time, dose: 100.0 micrograms/kg/injection, schedule: Q01DX015 (ip), vehicle: saline 103 % of control | endpoint: mean survival time, dose: 125.0 micrograms/kg/injection, schedule: Q01DX001 (ip), vehicle: clinical formulation 104 % of control | endpoint: mean survival time, dose: 125.0 micrograms/kg/injection, schedule: Q04DX003 (ip), vehicle: clinical formulation 115 % of control | endpoint: mean survival time, dose: 125.0 micrograms/kg/injection, schedule: Q08DX002 (ip), vehicle: clinical formulation 101 % of control | endpoint: mean survival time, dose: 200.0 micrograms/kg/injection, schedule: Q01DX015 (ip), vehicle: saline 115 % of control | endpoint: mean survival time, dose: 216.0 micrograms/kg/injection, schedule: Q04DX003 (ip), vehicle: saline 116 % of control | endpoint: mean survival time, dose: 250.0 micrograms/kg/injection, schedule: Q01DX001 (ip), vehicle: clinical formulation 106 % of control | endpoint: mean survival time, dose: 250.0 micrograms/kg/injection, schedule: Q03HX024 (ip), vehicle: clinical formulation 98 % of control | endpoint: mean survival time, dose: 250.0 micrograms/kg/injection, schedule: Q04DX003 (ip), vehicle: clinical formulation 116 % of control | endpoint: mean survival time, dose: 250.0 micrograms/kg/injection, schedule: Q08DX002 (ip), vehicle: clinical formulation 108 % of control | endpoint: mean survival time, dose: 500.0 micrograms/kg/injection, schedule: Q01DX001 (ip), vehicle: clinical formulation 113 % of control | endpoint: mean survival time, dose: 500.0 micrograms/kg/injection, schedule: Q08DX002 (ip), vehicle: clinical formulation 106 % of control | endpoint: mean survival time, dose: 600.0 micrograms/kg/injection, schedule: Q04DX003 (ip), vehicle: saline 112 % of control | endpoint: mean survival time, dose: 740.0 micrograms/kg/injection, schedule: Q01DX009 (ip), vehicle: saline 92 % of control and 102 % of control | endpoint: mean survival time, dose: 1000.0 micrograms/kg/injection, schedule: Q08DX002 (ip), vehicle: clinical formulation 108 % of control | endpoint: mean survival time, dose: 2000.0 micrograms/kg/injection, schedule: Q01DX001 (ip), vehicle: clinical formulation 116 % of control | endpoint: median survival time, dose: 0.02 mg/kg/injection, schedule: Q01DX001 (ip), vehicle: water 103 % of control | endpoint: median survival time, dose: 0.03 mg/kg/injection, schedule: Q01DX001 (ip), vehicle: water 103 % of control | endpoint: median survival time, dose: 0.05 mg/kg/injection, schedule: Q01DX001 (ip), vehicle: water 108 % of control | endpoint: median survival time, dose: 0.14 mg/kg/injection, schedule: Q01DX009 (ip), vehicle: water 114 % of control | endpoint: median survival time, dose: 0.25 mg/kg/injection, schedule: Q01DX002 (ip), vehicle: water 110 % of control | endpoint: median survival time, dose: 0.25 mg/kg/injection, schedule: Q01DX009 (ip), vehicle: water 115 % of control | endpoint: median survival time, dose: 0.4 mg/kg/injection, schedule: Q01DX001 (ip), vehicle: saline 111 % of control | endpoint: median survival time, dose: 0.4 mg/kg/injection, schedule: Q01DX009 (ip), vehicle: water 100 % of control and 103 % of control | endpoint: median survival time, dose: 0.5 mg/kg/injection, schedule: Q01DX001 (ip), vehicle: water 99 % of control and 100 % of control | endpoint: median survival time, dose: 1.0 mg/kg/injection, schedule: Q01DX001 (ip), vehicle: water 102 % of control | endpoint: median survival time, dose: 2.0 mg/kg/injection, schedule: Q01DX001 (ip), vehicle: water 116 % of control | endpoint: median survival time, dose: 2.0 mg/kg/injection, schedule: Q01DX002 (ip), vehicle: water 108 % of control
